US20060134693A1, “Olfactory cyclic nucleotide-gated channel cell-based assays to identify T1R and T2R taste modulators” (priority 2001, published 2006)

Tests used:
[1] = target: T1, human sweet receptor hT1R2/hT1R3 (Homo sapiens, UniProt Q7RTX0+Q8TE23); settings: prevented by pertussis toxin; cited from earlier work
T1 construct: host or cells: human embryonic kidney cells (earlier application U.S. Ser. No. 10/770,127)
T1 sequence (Q8TE23 20-839): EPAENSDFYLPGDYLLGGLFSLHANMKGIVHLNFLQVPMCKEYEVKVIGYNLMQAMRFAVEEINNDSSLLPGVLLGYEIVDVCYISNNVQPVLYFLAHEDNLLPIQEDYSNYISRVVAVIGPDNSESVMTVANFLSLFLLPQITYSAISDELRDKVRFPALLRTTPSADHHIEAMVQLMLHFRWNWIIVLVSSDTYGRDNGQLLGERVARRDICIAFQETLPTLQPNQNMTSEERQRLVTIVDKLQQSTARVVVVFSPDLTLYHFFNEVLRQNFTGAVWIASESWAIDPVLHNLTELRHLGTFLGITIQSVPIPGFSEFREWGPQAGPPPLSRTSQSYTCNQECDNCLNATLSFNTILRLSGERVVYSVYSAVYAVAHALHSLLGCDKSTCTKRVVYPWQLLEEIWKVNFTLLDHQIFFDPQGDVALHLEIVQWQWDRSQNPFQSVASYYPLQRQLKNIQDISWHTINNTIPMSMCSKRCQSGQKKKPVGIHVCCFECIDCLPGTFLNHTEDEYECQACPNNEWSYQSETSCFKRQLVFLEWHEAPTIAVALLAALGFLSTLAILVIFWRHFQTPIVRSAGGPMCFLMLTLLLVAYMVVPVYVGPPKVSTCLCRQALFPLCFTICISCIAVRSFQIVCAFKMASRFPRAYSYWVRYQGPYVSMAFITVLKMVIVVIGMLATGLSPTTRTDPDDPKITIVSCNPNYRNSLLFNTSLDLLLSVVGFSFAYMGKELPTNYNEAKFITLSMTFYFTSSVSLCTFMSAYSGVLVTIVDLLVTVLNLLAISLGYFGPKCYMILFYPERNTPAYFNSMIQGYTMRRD
T1 sequence (Q7RTX0 21-852): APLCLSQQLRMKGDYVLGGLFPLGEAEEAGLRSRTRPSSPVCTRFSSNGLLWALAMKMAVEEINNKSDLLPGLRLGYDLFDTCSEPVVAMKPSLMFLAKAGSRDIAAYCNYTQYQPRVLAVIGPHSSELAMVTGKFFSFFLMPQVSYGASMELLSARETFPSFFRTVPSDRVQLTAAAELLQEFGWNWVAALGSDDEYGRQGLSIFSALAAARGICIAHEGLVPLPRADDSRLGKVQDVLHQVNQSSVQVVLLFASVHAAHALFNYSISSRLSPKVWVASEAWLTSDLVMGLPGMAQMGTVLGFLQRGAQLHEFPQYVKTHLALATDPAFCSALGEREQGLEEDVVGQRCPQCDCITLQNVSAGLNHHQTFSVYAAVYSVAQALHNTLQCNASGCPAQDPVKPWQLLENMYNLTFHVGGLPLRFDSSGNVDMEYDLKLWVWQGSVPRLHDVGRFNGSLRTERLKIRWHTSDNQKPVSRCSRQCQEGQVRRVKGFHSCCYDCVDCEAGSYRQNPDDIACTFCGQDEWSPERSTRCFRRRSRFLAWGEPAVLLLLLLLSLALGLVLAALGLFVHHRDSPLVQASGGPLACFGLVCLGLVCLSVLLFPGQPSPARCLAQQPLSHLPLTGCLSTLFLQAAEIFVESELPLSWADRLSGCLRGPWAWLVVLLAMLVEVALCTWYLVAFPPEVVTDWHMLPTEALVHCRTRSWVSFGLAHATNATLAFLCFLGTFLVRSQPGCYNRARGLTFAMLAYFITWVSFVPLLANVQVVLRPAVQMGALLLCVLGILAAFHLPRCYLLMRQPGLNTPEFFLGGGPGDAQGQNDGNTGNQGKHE

[2] = target: T2, mouse bitter receptor mT2R05 (Mus musculus, UniProt Q9JKT4); settings: abolished by pertussis toxin; cited from earlier work
T2 construct: host or cells: human embryonic kidney cells (earlier application)
T2 sequence (Q9JKT4 1-300): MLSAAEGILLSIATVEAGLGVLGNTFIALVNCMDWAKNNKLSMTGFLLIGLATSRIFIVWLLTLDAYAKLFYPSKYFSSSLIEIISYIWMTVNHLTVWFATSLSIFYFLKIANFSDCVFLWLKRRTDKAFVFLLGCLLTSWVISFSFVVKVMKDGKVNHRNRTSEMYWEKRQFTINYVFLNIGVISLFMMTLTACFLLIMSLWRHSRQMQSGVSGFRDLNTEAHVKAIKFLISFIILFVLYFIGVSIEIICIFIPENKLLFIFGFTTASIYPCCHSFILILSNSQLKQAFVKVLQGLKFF

[3] = test system: untransfected HEK 293-oCNGC cells; assay: Isoproterenol-induced calcium influx in untransfected HEK 293-oCNGC cells; type: cell-based, human; settings: for effect on isoproterenol-induced calcium influx: cells not expressing hT1R2/hT1R3, increasing concentrations, 200 nM isoproterenol, FIG. 14
Method: Delta F/F valves were normalized to the fluorescence obtained after stimulation with 200 nM isoproterenol. Each value corresponds to the mean ± SD of a triplicate determination.
(§1) Modulation of oCNG activity by taste receptors is measured in a cell-based assay that detects changes in intracellular calcium (as described in earlier examples). In brief, human embryonic kidney cells stably expressing the OCNC1 and are β1b subunits of oCNGC are transiently or stably transfected with T1R or T2R receptor plasmids. Transfected cells are seeded into 384-well culture plates, and functional expression is allowed to proceed for about 24 to 48 hours. The cells are then incubated with a calcium specific fluorescent dye (Fluo-4 or Fura-2, available from Molecular Probes) that provides for fast, simple and reliable fluorimetric detection of changes in calcium concentration within the cell.
An experiment was conducted to confirm that the effects of the sweeteners on calcium influx requires the expression of the sweet receptor.
In FIG. 14, it is shown that increasing concentrations of the tested sweeteners had no inhibitory effect on isoproterenol-induced calcium influx in untransfected HEK 293—oCNGC cells. Again, Delta F/F values were normalized to the fluorescence obtained after stimulation with 200 nM isoproternol and each value component to the mean ± SD of a triplicate determination).

mT2R05 = target: T3, mT2R05 (Mus musculus, UniProt Q9JKT4); settings: mT2R05-expressing cells; cited from earlier work
T3 construct: host or cells: human embryonic kidney cells (earlier application)
T3 sequence (Q9JKT4 1-300): T2 sequence (Q9JKT4 1-300)

[4] = test system: rat bitter receptors rT2R9; settings: abolished by pertussis toxin; cited from earlier work
bitter receptor mT2R05 = target: T4, bitter receptor mT2R05 (Mus musculus, UniProt Q9JKT4); assay: Isoproterenol-induced calcium influx in HEK-293-oCNGC cells expressing mT2R05; type: cell-based; settings: 200 nM isoproterenol, FIG. 16
T4 construct: expressed in transfected cells; host or cells: HEK-293 stably expressing OCNC1 and β1b (HEK-293-oCNGC)
T4 sequence (Q9JKT4 1-300): T2 sequence (Q9JKT4 1-300)
Method: Delta F/F values were normalized to the fluorescence obtained after stimulation with 200 nM isoproterenol. Each value corresponds to the mean +1-SD of a triplicate determination. Cells were also treated with PTX as described for the for the preceding figure.
as §1, with “cell. […]” for “cell.”
More specifically, it was shown that PTx prevented inhibition of calcium inluux even with increasing concentrations of cycloheximide in HEK-293—oCNGC cells expressing mT2R05. As in figures above, Delta F/F values were normalized to the fluorescence obtained after stimulation with 200 nM isoproterenol. […]

[5] = target: T5, human umami receptor hT1R1/hT1R3 (Homo sapiens, UniProt Q7RTX0+Q7RTX1); settings: prevented by pertussis toxin; cited from earlier work
T5 sequence (Q7RTX1 21-841): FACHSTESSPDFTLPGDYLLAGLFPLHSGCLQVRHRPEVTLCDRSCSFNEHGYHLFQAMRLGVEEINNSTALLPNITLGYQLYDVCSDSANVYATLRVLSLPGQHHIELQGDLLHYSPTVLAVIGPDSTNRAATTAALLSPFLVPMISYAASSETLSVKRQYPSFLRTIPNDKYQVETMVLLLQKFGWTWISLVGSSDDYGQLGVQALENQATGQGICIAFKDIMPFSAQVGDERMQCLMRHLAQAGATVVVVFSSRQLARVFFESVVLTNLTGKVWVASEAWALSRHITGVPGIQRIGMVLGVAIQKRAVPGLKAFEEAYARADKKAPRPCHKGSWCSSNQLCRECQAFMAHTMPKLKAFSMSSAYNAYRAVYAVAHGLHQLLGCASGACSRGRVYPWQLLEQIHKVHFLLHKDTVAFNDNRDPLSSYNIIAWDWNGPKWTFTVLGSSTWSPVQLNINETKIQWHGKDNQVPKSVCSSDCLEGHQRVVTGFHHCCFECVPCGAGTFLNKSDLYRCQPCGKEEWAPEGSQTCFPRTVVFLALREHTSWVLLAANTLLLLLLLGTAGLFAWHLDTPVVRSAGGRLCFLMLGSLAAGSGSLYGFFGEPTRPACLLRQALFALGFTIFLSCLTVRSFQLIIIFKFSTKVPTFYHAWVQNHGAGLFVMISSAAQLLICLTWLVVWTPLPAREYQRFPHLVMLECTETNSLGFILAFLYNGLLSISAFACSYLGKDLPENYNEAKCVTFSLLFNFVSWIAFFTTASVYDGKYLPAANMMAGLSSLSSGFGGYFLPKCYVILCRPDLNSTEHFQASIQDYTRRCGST
T5 sequence (Q7RTX0 21-852): T1 sequence (Q7RTX0 21-852)

hT1R1/hT1R3 = target: T6, hT1R1/hT1R3 (Homo sapiens, UniProt Q7RTX0+Q7RTX1); settings: hT1R1/hT1R3-expressing cells; cited from earlier work
T6 construct: host or cells: human embryonic kidney cells (earlier application U.S. Ser. No. 10/770,127)
T6 sequence (Q7RTX1 21-841): T5 sequence (Q7RTX1 21-841)
T6 sequence (Q7RTX0 21-852): T1 sequence (Q7RTX0 21-852)

[6] = target: T1, human sweet receptor hT1R2/hT1R3; assay: Isoproterenol-induced calcium influx in HEK-293-oCNGC cells expressing hT1R2/hT1R3; type: cell-based; settings: PTX 100 ng/ml for 4 hours; 200 nM isoproterenol; 5 mM Aspartame, 2 mM Cyclamate, 4 mM Saccharin, 0.1 mM Neotame; FIG. 15
Method: FIG. 13 contains the result of an experiment showing that increasing concentrations of sweeteners inhibit the isoproterenol-induced-calcium influx in HEK 293-oCNGC cells expressing the human sweet receptor hT1R2/hT1R3. Delta F/F values were normalized to the fluorescence obtained after stimulation with 200 nM isoproterenol. Each value corresponds to the mean ± SD of a triplicate determination.
Cells were left untreated (control) or treated with PTX for 4 hours at 100 ng/ml prior to the experiment. Cells were then stimulated with 200 nM isoproterenol in the presence or absence of the indicated sweeteners (5 mM Aspartame, 2 mM Cyclamate, 4 mM Saccharin and 0.1 mM Neotame).
as §1
An experiment was conducted to assess the effect of various sweeteners (known to activate the human T1R2/T1R3 sweet receptor) on isoproterenol-induced calcium influx in HEK-293—oCNGC cells that express the human T1R2/T1R3 sweet receptor. As shown by the results in FIG. 13, increasing concentrations of sweetener inhibits isoproterenol-induced calcium influx in these cells. (In the figure, Delta F/F values were normalized to the fluorescence obtained after stimulation with 200 nM isoproterenol and each value corresponds to the means ± SD of a triplicate determination). […]

With N[C@H](Cc1c[nH]c2ccccc12)C(=O)O [D-tryptophan] as the compound, how does the ERK1/2 activation [1] read?
The ERK1/2 activation was “activate ERK1/2”.

For C[C@@H]1C[C@@H]([C@H](O)CC2CC(=O)NC(=O)C2)C(=O)[C@@H](C)C1 [cycloheximide], which ERK1/2 activation [2] is on record?
Its ERK1/2 activation is “specifically activates ERK1/2”.

What about the “response of mT2R05 untransfected cells” value ([3]; untransfected HEK 293-oCNGC cells, FIG. 16) of the same compound?
The value was “did not respond”.

What about the “inhibition of forskolin-induced cAMP accumulation” value (mT2R05) of the same compound?
The value was 70%.

What about the ERK1/2 activation [4] of the same compound?
The ERK1/2 activation was “specifically activates ERK1/2”.

What about the “effect on isoproterenol-induced calcium influx after PTx treatment” value (bitter receptor mT2R05; cells treated with PTx) of the same compound?
The value was “failed to inhibit isoproterenol-induced calcium influx”.

What about the “effect on isoproterenol-induced calcium influx” value (bitter receptor mT2R05; increasing concentrations) of the same compound?
Its value is “inhibited isoproterenol-induced calcium influx”.

Which ERK1/2 activation [5] does the source give for N[C@@H](CCC(=O)O)C(=O)[O-].[Na+] [monosodium glutamate] here?
The ERK1/2 activation was “exclusively activates ERK1/2”.

And the “decrease of basal levels of cAMP” value (hT1R1/hT1R3)?
The value was 50%.

With COC(=O)[C@H](Cc1ccccc1)NC(=O)[C@H](CC(=O)O)NCCC(C)(C)C [neotame] as the compound, how does the “inhibition of isoproterenol-induced calcium influx after PTx pretreatment” value [6] read?
The value was “prevented the inhibition”.

And the “effect on isoproterenol-induced calcium influx” value [3]?
The value was “unaffected”.

With O=C1NS(=O)(=O)c2ccccc21 [saccharin] as the compound, how does the “inhibition of isoproterenol-induced calcium influx after PTx pretreatment” value [6] read?
Its value is “prevented the inhibition”.

What about the “effect on isoproterenol-induced calcium influx” value [3] of the same compound?
The value was “unaffected”.

What about the ERK1/2 activation [1] of the same compound?
Its ERK1/2 activation is “activate ERK1/2”.

For OC[C@H]1O[C@@](CO)(O[C@H]2O[C@H](CO)[C@@H](O)[C@H](O)[C@H]2O)[C@@H](O)[C@@H]1O [sucrose], which ERK1/2 activation [1] is on record?
The ERK1/2 activation was “activate ERK1/2”.
